melting point | Compound
144 to 146 °C | COc1ccc2c(c1OC(C)=O)NC(O)C1CCCN1C2=O (centres undefined)
126 to 127 °C | COc1ccc(C(=O)CN2CCc3cc(OCc4ccccc4)c(OC)cc3C2)cc1OC
158 to 160 °C | O=C(O)CCc1cc2cc(Cl)ccc2n1S(=O)(=O)c1ccc(Cl)cc1
56 to 57 °C | CCC(=O)CCC(=O)c1ccc(F)cc1
218 to 220 °C | N#Cc1cc(-c2ccccc2F)[nH]c1Cl
171 to 173 °C | CS(=O)(=O)c1ccc(-c2sc(COc3cc(Cl)cc(Cl)c3)nc2-c2ccc(F)cc2)cc1
100 to 102 °C | CC(=O)N1CCN(c2cc3nc(C(C)(C)C)sc3cc2N=C=S)CC1
107 to 109 °C | O[C@H](CN[C@H]1CCCc2ccccc21)COc1cccc2ccccc12
147 to 152 °C | CC12CCC(C(=O)Nc3ccc(CC#N)cc3)(OC1=O)C2(C)C (centres undefined)
130 to 132 °C | Cc1c(C(=O)C2CSC(c3cccnc3)N2)c2ccccc2n1C(=O)N(C)C (centres undefined)
197 to 198 °C | O=C(O)C=CC(=O)OC1CCN(C(=O)Cn2c(=O)sc3ccc(Cl)cc32)CC1
233 to 236 °C | CN(Cc1ccc(NC(=O)C2=Cc3cc(-c4ccc(C#N)cc4)ccc3S(=O)(=O)CC2)cc1)C1CCOCC1
90 °C | CCCCN(CCCC)CCCOc1ccc(S(=O)(=O)c2ccc3ccccc3c2)cc1
197 to 199 °C | Oc1ccc(-c2c3ccccc3cc3sc4cc(O)ccc4c23)cc1
87 to 97 °C | CC(=O)C(O)C1OC(n2cnc3c(NC4CCCc5ccccc54)ncnc32)C(O)C1O (centres undefined)
251 to 254 °C | CCCc1nc2c(N)nc3cc(-c4cccc(C(=O)NC5CC5)c4)ccc3c2s1
119 to 121 °C | CC(C)SC(F)(F)c1nnc(N)s1
159 to 160 °C | CCC1(CC)OC(=O)Nc2ccccc21
100 to 102 °C | CNCC1Cc2cc(Cl)cc(-c3ccccc3OC)c2O1 (centres undefined)
> 285 °C | CS(=O)(=O)c1ccc(-n2c(-c3ccc(F)cc3)nc(O)c(C#N)c2=O)cc1
236 to 238 °C | Cc1ccccc1-c1cccc2c1CNC(=O)N2c1ccccc1
94 to 95 °C | COCCOc1ccc2c(c1)OCC21C(=O)N(Cc2ccccn2)c2ccccc21 (centres undefined)
94 to 96 °C | COC=C(C(=O)OC)c1c(OCc2cc(Cl)ccc2Cl)c(C)nn1C
221 to 225 °C | COc1ccc(C(=O)Nc2ccc(F)cc2)cc1NS(=O)(=O)c1cccc(C#N)c1
143 to 145 °C | CC(C)N1CCN(c2ccc(OCCCCCCC(O)(Cn3ccnc3)c3ccc(Cl)cc3Cl)cc2)CC1 (centres undefined)
166 to 168 °C | CCCCCCCCCCCCOCC1CN(c2cc3c(cc2F)c(=O)c(C(=O)O)cn3CC)CCN1C (centres undefined)

melting point | Compound
178 to 180 °C | CN(C)C1CCC(Nc2ncc3ncnc(Nc4ccc(F)c(Cl)c4)c3n2)CC1 (centres undefined)
115 °C | O=C(NC/C=C/c1ccccc1)c1ccoc1
218 to 219 °C | CN1CCC(c2c(O)cc(O)c3c(=O)cc(-c4ccccc4Cl)oc23)C1CN (centres undefined)
98.5 to 99.5 °C | CSC(C(N)=O)c1ccccc1N (centres undefined)
178 to 179 °C | Nc1ncc2ncn(OC(CO)CCO)c2n1 (centres undefined)
208 to 209 °C | COCOc1ccccc1-c1cc(-c2cc([N+](=O)[O-])ccc2Cl)c(C#N)c(NC(=O)c2cccs2)n1
132 to 136 °C | Oc1cccc2c1C=CC=CN2
> 350 °C | CC(=O)N1CCc2[nH]cc3c(=O)n(-c4ccc(Cl)cc4)nc-3c2C1
80 to 81 °C | COc1ccc(OCC2(CO)CC2)cc1
202 to 205 °C | Cc1cc(C(=O)NCCc2ccc(CCC(=O)O)cc2)n[nH]1
183 to 186 °C | COC(=O)c1ccc(OC)cc1S(=O)(=O)NC(=O)Nc1nc(C)nc(OC)n1
253 °C | Nc1ccc(Nc2c(NCC3CCCO3)cc(C(=O)O)cc2S(N)(=O)=O)cc1 (centres undefined)
130 to 132 °C | CN1CCCCC1CCCc1ccccc1NC(=O)C=Cc1ccccc1 (centres undefined)
203 to 204 °C | CC(O)CCNC(=O)C1CCC(Nc2nccc(-n3ncc4ccccc43)n2)CC1 (centres undefined)
133 to 135 °C | O=[N+]([O-])c1ccc2c(c1)OC(COc1nccnc1N1CCNCC1)CO2 (centres undefined)
96 to 98 °C | CCOP(=O)(Cc1ccc(NC(=O)[C@H]2Cc3cc(OC)c(OC)cc3C(=O)CS2)cc1)OCC
128 °C | CC(c1ncncc1Cl)C(O)(Cn1cncn1)c1ccc(F)cc1F (centres undefined)
58 to 60 °C | COC(=O)CCN=c1sc2ccccc2s1
181 to 183 °C | COCc1nc2c(C(=O)c3cccnc3Oc3cccc(Cl)c3)ccc(OC)c2[nH]1
321 to 323 °C | CN(C)c1ccc2c(c1)C(=O)CC(c1ccc(O)cc1)=N2
136 to 137 °C | CC(C)(C)c1ccc(CCC(O)CCC2CCCCC2)cc1NC(=O)CC1c2ccccc2Oc2ccccc21 (centres undefined)
155 to 164 °C | O=C(O)CCCc1cc2nc(Cl)ccc2n1S(=O)(=O)c1cc(C(F)(F)F)cc(C(F)(F)F)c1
75.5 to 77.5 °C | COC(=O)CCC(=O)c1ccc(-c2ccccc2F)cc1
49 to 52 °C | O=Cc1ccc(CCBr)cc1
168 °C | CC(=O)Nc1nc(OCC(C)C)c2nc(Cl)ccc2n1
153 °C | COC(OC)C1CN=C(c2cc3cccc(NS(=O)(=O)c4ccccn4)c3[nH]2)S1 (centres undefined)

The remaining lines, values behind:

Compound | melting point
CC(C)(C)C(=O)OCn1nnc(-c2cc(Br)ccc2NC(=O)c2cccc(S(=O)(=O)N3CCOCC3)c2)n1 | 210 to 212 °C
CC12CCC3C(CC4OC45CC=CCC35C)C1CC=C2Br (centres undefined) | 146 to 147 °C
Cc1cc2c(c(C(=O)O)c1)OCC2 | 177 to 179 °C
CC(C)(C)c1ccc(/C=C/C(=O)Nc2ccc3ccn(CCO)c3c2)cc1 | 178 °C
CC1(C)COC(=O)N1c1nc(-c2ccc(Br)cc2)cs1 | 165 to 167 °C
CC(=O)N1CC(=O)Nc2ccccc21 | 164 to 165 °C
NCCCCn1ccnc1-c1ccccc1 | 82 to 84 °C
CCNC(=O)N1CCCC(n2nnnc2-c2cc(-c3cc(C(C)C)ccc3OC)c(O)cc2O)C1 (centres undefined) | 223 to 226 °C
CC(CCCC(C)(C)O)C1CCC2C3C=CC4=CC(=O)C5OC5C4(C)C3CCC12C (centres undefined) | 162 to 163 °C
CCOC(=O)c1cnc(OC)nc1Cl | 26 to 28 °C
C#CCOc1cc(O)c2c(c1)OC(C)(C)CC2=O | 122 to 124 °C
FC(F)(F)c1cccc(C(Cl)=Nc2nc(C(F)(F)F)c(I)s2)c1 | 136 to 137 °C
N#Cc1cc(N)n(-c2c(Cl)cc(C(F)(F)F)cc2Cl)n1 | 117 to 118 °C
O=C(O)COc1cccc2c1CC(SCc1ccccc1)c1sc(-c3ccc4ccccc4c3)nc1-2 (centres undefined) | 118 to 121 °C
Cc1ccc(S(=O)(=O)NN=C2CCCC(=O)C2Cc2ccccc2)cc1 (centres undefined) | 172 to 173 °C
Cc1ccc(-c2c(Cl)nc3ncnn3c2Cl)c(F)c1 | 152 °C
CC(=O)c1ccc(-c2ccc(F)cc2)c(F)c1 | 80 to 82.5 °C
Clc1ccc(Nc2nc(-c3cccc(Cl)n3)nc3ccccc23)cc1 | 212 to 213 °C
Nc1cc(S(=O)(=O)C(F)(F)F)cc(Cl)c1N | 143 to 145 °C
CCOC(=O)C1=C(COCC(C)(O)c2ccco2)NC(C)=C(C(=O)OC)C1c1cccc(Cl)c1Cl (centres undefined) | 88 to 90 °C
CCCCN(C)CCOc1ccc(Cn2c(-c3ccc(O)cc3)c(C)c3cc(O)ccc32)cc1 | 102 to 107 °C
CC1(C)OC[C@H]([C@@H]2CNC(=O)C2)O1 | 84 to 86 °C
COCCNc1c(S(=O)(=O)C(F)(F)F)c(C#N)nn1-c1c(Cl)cc(C(F)(F)F)cc1Cl | 164 °C
CCOC(=O)Nc1ccc(N2CCN([C@H](C)[C@](O)(Cn3cncn3)c3ccc(F)cc3F)CC2)cc1 | 90 to 92 °C

Compound | melting point
COc1c(C(N)=O)nnn1Cc1ccccc1Cl | 185 to 187 °C
CCC(CC)Nc1nc(C)nc(Nc2c(C)cc(C)nc2C)c1[N+](=O)[O-] | 151 to 152 °C
CN1CCCC(COc2ccc(/C=c3\[nH]c(=O)/c(=C/c4ccccc4)[nH]c3=O)nc2)C1 (centres undefined) | 326 to 328 °C
CC(C)c1cccc(C(C)C)c1NC(=O)[C@H](CCc1ccccc1)NC(=O)OC(C)(C)C | 193 to 197 °C
CCOC(=O)C(CBr)=NOC(=O)c1ccc(Cl)cc1 | 82 to 84.5 °C
CC1CCC(=NNc2ccccc2)c2ncc(C(N)=O)c(=O)n21 (centres undefined) | 246 to 247 °C
CC(C)N(CCN1C(=O)C(=O)c2cc(Cl)ccc21)C(C)C | 99 to 101 °C
CC(=O)Nc1ccc(OCCN(CC(=O)c2ccc(OCc3ccccc3)c(OCc3ccccc3)c2)Cc2ccccc2)cc1 | 104 to 106 °C
CCc1ccc2nc(C)[nH]c2c1N1CC(CNC(C)=O)OC1=O (centres undefined) | 217 to 218 °C
CC(=O)NC(CCc1ccc(C(O)CCCCCc2ccccc2)cc1)(CO[Si](C)(C)C(C)(C)C)CO[Si](C)(C)C(C)(C)C (centres undefined) | 118 to 120 °C
CN1CC(c2cccc(Br)c2)=C(c2ccc(S(C)(=O)=O)cc2)C1=O | 138 to 139 °C
Cc1oc2ccccc2c1C(=O)c1ccc(Cl)c(N)c1 | 103 °C
CN1CCC(c2nc(-c3ccncc3)c(-c3ccc(F)cc3)[nH]2)CC1 | 259 to 261 °C
COc1ccc(CS(=O)(=O)/C(=C/c2c(OC)cc(OC)cc2OC)C(=O)c2ccc(OC)cc2)cc1 | 60 to 62 °C
CC(=O)NS(=O)(=O)c1cc(C(=O)O)cc(N)c1Oc1ccccc1 | 290 to 293 °C
CN(CC(=O)Nc1ccccc1)C(=O)CN1CCCC1=O | 145 to 146 °C
CN1C(=O)C(c2c[nH]c3ccc(F)cc23)=C(c2c[nH]c3ccc(F)cc23)C1=O | > 290 °C
COc1ccc(S(=O)(=O)N2c3ccc(Br)cc3-c3ccccc3C2c2ccccc2)cc1 (centres undefined) | 209 to 211 °C
CCOC(=O)N(Cc1ccccc1)Cn1cc(Cl)cnc1=O | 143 °C
C=CCO[C@@H]1CC(C(=O)O)=C[C@@H](OC(C)C)[C@@H]1NC(C)=O | 70 to 71 °C
Cc1cc(C2CC(C)(C)NC(C)(C)C2)cc(C)c1O | 152 to 154 °C
O=C(Nc1ccc(N2CCOCC2=O)cc1)[C@H]1C[C@@H](O)CN1C(=O)Cc1ccc(Cl)cc1 | 141 °C
Cc1cccc(-c2c[nH]c(=O)c(C#N)c2)c1 | 254 to 260 °C
